Some targets named below: Vasopressin V2 receptor (Homo sapiens, UniProt P30518); Adenosine receptor A2a (Homo sapiens, UniProt P29274); Vasopressin V1a receptor (Homo sapiens, UniProt P37288); Histamine H3 receptor (Homo sapiens, UniProt Q9Y5N1); Histamine H1 receptor (Homo sapiens, UniProt P35367).
The next assay has as its target T1, Adenosine receptor A1 (Homo sapiens, UniProt P30542).
T1 sequence (P30542 whole entry): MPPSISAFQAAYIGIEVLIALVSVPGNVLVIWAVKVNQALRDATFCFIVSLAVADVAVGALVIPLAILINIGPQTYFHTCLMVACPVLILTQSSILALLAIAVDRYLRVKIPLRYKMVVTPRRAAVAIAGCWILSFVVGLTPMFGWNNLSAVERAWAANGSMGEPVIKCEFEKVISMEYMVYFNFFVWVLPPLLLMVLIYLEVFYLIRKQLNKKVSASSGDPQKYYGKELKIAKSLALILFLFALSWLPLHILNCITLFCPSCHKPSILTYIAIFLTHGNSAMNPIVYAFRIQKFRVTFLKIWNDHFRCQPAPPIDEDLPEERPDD

Assay [1] deals with Gamma-aminobutyric acid receptor subunit alpha-1 (Rattus norvegicus, UniProt P62813). In kind it is functional.
Sequence of Gamma-aminobutyric acid receptor subunit alpha-1 (P62813 whole entry): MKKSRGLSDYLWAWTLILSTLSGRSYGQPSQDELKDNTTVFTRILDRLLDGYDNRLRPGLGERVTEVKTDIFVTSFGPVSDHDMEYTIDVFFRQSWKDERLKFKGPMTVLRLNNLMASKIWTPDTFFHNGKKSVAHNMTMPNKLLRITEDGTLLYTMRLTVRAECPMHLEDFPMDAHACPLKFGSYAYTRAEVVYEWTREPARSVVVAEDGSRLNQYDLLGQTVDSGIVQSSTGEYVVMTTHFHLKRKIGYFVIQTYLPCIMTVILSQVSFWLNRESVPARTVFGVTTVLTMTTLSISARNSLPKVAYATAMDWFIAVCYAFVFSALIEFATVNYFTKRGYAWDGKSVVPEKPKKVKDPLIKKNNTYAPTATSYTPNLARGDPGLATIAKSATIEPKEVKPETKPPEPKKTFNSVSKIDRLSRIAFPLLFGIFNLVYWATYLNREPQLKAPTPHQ
In the next assay the target is T2, B2 bradykinin receptor (Homo sapiens, UniProt P30411).
T2 sequence (P30411 whole entry): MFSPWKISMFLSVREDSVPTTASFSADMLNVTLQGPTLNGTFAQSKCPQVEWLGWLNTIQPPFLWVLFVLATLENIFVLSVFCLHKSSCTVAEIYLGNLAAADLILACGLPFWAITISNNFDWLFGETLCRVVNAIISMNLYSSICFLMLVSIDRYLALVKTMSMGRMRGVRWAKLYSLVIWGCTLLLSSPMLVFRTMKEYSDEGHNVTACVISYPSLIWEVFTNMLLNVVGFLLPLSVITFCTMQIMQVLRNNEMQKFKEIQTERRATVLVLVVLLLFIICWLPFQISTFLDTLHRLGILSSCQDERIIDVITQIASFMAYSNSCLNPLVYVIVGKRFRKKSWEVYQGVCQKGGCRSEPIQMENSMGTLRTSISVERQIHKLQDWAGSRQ

Assay [2] concerns the target Sodium-dependent noradrenaline transporter (Homo sapiens, UniProt P23975).
Assay [3] deals with Kappa-type opioid receptor (Homo sapiens, UniProt P41145).
Sequence of Kappa-type opioid receptor (P41145 whole entry): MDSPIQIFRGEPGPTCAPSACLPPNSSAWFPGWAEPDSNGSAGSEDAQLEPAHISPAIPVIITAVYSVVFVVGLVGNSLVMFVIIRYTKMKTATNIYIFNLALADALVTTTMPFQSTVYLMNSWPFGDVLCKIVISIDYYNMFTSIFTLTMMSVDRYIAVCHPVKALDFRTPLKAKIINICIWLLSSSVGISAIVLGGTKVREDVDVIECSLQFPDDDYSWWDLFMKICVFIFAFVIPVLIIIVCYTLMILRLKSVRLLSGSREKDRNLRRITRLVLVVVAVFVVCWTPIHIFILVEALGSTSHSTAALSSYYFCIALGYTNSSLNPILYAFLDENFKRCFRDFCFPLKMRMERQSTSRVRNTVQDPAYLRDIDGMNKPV
The target of assay [4] is T3, Alpha-2C adrenergic receptor (Homo sapiens, UniProt P18825).
T3 sequence (P18825 whole entry): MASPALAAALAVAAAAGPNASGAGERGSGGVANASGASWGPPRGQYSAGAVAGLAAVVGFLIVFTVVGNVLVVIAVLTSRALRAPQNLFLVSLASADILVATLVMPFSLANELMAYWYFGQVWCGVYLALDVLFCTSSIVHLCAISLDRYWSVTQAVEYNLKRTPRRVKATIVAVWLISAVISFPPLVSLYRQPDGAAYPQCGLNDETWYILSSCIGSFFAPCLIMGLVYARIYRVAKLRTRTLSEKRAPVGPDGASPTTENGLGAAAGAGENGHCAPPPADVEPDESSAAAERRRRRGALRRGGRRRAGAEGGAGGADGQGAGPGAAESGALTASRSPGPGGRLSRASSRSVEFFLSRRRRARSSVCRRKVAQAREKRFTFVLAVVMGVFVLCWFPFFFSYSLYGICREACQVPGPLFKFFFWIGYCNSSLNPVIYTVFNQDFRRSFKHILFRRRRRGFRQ
It is filed as functional.

Assay [5] deals with Growth hormone secretagogue receptor type 1 (Homo sapiens, UniProt Q92847).
Sequence of Growth hormone secretagogue receptor type 1 (Q92847 whole entry): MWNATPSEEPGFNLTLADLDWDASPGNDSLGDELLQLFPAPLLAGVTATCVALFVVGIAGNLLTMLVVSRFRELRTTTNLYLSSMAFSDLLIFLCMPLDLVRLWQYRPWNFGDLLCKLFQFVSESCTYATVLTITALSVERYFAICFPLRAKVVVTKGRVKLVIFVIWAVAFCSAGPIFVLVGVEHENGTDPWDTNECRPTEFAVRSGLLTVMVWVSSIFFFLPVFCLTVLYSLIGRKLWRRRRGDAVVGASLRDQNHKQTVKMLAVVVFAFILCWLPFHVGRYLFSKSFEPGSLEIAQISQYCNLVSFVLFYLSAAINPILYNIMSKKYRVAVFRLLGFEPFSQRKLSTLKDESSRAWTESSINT
In assay [6] the target is T4, 5-hydroxytryptamine receptor 2B (Homo sapiens, UniProt P41595). In kind it is functional, cell-based.
T4 sequence (P41595 whole entry): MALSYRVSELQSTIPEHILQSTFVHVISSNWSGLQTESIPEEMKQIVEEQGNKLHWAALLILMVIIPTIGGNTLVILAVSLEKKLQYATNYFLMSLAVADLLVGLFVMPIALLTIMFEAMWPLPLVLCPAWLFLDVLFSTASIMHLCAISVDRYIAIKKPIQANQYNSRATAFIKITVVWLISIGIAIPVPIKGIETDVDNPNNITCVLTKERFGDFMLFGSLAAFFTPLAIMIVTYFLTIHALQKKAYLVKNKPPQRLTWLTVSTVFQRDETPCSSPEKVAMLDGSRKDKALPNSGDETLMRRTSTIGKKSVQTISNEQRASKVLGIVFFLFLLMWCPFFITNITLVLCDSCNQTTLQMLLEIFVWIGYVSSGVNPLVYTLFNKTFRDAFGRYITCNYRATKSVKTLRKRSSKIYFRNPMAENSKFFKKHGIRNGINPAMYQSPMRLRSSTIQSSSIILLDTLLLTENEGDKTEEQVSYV
Assay [7] deals with T5, Alpha-2A adrenergic receptor (Homo sapiens, UniProt P08913).
T5 sequence (P08913 whole entry): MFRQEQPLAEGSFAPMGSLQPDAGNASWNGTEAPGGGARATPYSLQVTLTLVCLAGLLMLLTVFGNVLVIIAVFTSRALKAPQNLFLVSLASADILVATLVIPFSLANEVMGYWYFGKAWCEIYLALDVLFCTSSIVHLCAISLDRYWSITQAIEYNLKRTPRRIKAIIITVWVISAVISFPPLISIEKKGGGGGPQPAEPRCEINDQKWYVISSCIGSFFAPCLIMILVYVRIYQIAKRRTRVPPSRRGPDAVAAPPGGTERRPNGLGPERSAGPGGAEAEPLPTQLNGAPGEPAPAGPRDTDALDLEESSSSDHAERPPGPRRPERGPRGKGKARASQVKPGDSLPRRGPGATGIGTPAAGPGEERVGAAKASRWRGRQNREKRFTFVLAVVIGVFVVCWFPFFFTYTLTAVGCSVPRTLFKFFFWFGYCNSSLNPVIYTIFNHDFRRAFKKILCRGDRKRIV
It is filed as functional, cell-based.

The target of assay [8] is T4, 5-hydroxytryptamine receptor 2B. In kind it is functional, cell-based. This is another data set of the same source.
For the next assay, the target named is Cannabinoid receptor 1 (Homo sapiens, UniProt P21554). It is filed as functional, cell-based.
Sequence of Cannabinoid receptor 1 (P21554 whole entry): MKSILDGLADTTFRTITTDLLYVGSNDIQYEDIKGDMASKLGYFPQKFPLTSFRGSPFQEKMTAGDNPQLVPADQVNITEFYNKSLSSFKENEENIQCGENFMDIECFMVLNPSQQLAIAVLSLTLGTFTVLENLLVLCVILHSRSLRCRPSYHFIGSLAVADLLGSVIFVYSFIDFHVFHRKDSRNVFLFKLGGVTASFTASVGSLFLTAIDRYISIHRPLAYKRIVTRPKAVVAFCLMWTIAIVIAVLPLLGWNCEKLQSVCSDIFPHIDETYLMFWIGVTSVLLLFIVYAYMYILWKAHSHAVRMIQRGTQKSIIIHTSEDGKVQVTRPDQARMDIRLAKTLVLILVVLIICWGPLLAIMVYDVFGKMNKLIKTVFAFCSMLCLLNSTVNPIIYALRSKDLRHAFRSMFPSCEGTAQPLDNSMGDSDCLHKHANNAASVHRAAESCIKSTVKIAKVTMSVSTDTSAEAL
Assay [9] deals with Muscarinic acetylcholine receptor M3 (Homo sapiens, UniProt P20309).
Sequence of Muscarinic acetylcholine receptor M3 (P20309 whole entry): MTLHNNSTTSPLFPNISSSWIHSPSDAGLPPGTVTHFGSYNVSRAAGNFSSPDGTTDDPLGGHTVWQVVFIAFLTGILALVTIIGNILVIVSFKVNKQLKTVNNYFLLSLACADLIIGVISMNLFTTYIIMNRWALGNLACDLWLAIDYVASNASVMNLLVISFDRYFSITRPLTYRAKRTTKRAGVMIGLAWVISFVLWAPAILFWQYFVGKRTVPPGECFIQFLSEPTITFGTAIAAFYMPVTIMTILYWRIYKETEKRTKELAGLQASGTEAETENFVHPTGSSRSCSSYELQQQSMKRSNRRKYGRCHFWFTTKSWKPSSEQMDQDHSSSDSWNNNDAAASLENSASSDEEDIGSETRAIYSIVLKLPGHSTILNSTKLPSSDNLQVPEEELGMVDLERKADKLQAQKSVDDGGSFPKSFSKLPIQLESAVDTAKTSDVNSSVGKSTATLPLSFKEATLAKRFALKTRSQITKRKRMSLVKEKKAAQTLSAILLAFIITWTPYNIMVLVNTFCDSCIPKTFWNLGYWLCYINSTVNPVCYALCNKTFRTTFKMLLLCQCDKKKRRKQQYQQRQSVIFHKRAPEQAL

Some results are limits rather than exact numbers.
Also: assay procedure not described here.

Sequence of Vasopressin V2 receptor (P30518 whole entry): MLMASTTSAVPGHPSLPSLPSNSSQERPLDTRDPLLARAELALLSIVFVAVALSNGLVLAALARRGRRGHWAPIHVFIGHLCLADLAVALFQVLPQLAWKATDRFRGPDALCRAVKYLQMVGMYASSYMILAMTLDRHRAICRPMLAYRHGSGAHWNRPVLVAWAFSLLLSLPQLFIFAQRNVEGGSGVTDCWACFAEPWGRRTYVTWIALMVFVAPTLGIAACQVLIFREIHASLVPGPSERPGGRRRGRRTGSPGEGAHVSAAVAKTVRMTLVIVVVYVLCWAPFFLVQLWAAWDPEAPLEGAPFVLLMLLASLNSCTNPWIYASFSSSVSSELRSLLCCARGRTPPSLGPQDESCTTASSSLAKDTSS
Sequence of Adenosine receptor A2a (P29274 whole entry): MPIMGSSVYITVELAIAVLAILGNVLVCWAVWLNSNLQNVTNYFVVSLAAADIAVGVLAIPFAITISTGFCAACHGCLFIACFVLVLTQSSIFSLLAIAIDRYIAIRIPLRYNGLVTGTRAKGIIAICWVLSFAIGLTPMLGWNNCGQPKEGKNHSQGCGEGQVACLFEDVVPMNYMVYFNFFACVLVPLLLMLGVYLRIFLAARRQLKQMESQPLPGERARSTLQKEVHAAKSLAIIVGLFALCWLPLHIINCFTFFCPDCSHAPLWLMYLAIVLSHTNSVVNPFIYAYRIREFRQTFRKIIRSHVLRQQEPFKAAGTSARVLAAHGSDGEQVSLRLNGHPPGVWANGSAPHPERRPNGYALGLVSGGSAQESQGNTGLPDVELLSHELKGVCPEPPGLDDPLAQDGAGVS
Sequence of Histamine H1 receptor (P35367 whole entry): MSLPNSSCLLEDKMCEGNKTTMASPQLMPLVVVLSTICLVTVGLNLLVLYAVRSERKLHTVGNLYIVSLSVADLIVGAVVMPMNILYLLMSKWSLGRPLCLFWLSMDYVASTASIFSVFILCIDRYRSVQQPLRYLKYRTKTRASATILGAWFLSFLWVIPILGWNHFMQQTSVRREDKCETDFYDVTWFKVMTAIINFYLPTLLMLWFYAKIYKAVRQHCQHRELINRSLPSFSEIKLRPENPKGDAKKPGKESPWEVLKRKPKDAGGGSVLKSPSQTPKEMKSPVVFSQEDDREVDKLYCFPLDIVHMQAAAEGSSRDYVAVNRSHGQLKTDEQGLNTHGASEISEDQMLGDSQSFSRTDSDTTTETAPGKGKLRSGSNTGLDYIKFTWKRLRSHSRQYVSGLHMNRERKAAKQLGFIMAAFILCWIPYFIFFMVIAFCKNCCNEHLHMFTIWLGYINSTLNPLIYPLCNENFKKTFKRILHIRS
Sequence of Vasopressin V1a receptor (P37288 whole entry): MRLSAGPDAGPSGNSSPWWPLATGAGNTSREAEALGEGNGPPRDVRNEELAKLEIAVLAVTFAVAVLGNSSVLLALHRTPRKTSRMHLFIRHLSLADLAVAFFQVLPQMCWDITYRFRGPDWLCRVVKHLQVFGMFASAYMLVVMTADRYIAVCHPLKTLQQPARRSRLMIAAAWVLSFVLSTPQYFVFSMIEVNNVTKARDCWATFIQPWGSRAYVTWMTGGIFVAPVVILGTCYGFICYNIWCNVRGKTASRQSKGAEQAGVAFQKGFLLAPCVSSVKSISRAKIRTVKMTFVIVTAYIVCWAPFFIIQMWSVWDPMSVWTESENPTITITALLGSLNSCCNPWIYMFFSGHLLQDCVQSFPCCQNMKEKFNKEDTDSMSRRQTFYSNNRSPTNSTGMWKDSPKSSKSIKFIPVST
Sequence of Histamine H3 receptor (Q9Y5N1 whole entry): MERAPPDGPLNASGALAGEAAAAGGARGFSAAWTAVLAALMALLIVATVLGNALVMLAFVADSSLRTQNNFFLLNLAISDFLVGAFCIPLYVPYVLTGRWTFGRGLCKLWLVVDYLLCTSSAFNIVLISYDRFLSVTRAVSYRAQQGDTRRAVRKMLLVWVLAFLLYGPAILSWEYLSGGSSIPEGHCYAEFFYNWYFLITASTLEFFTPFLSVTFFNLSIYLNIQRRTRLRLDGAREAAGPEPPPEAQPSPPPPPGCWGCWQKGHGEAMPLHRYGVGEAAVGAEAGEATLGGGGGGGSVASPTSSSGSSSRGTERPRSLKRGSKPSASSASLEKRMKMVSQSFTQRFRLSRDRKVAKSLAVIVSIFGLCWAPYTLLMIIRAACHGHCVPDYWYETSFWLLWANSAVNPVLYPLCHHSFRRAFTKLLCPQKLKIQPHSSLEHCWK

Usually AC50 stands for the midpoint of the concentration-response curve, whichever way the signal moves. In the case of `CNS(=O)(=O)Cc1ccc2[nH]cc(CCN(C)C)c2c1`, the AC50 was more than 30 µM on Adenosine receptor A1; more than 30 µM in [1]; more than 30 µM at B2 bradykinin receptor; more than 10 µM in assay [2]; more than 30 µM at Vasopressin V2 receptor; more than 30 µM in assay [3]. For the same compound, the AC50 at Adenosine receptor A2a was more than 30 µM; in assay [4], more than 30 µM; at Vasopressin V1a receptor, more than 10 µM; in assay [5] it was more than 30 µM; in assay [6], more than 10 µM; in assay [7], more than 30 µM. Moreover, the AC50 in assay [8] is 13 µM; at Cannabinoid receptor 1 it was more than 30 µM.
`CC=CC(=O)N(CC)c1ccccc1C`: the concentration at half-maximal activity (AC50) (on Adenosine receptor A1; in assay [1]; on B2 bradykinin receptor; in assay [2]; on Histamine H3 receptor; at Vasopressin V2 receptor) was more than 10 µM throughout. Besides, the AC50 (in [3]; at Adenosine receptor A2a; in assay [4]; in assay [5]; in assay [6]; in assay [7]) was more than 10 µM in each case. The AC50 was more than 10 µM in [8] and more than 30 µM at Cannabinoid receptor 1.
With `CCCC(=O)O[C@]1(C(=O)CO)CC[C@H]2[C@@H]3CCC4=CC(=O)CC[C@]4(C)[C@H]3[C@@H](O)C[C@@]21C` [HYDROCORTISONE BUTYRATE], the AC50 (at Adenosine receptor A1; in [1]; at B2 bradykinin receptor; in [2]; on Vasopressin V2 receptor; at Histamine H1 receptor) was more than 10 µM throughout. For the same compound, the AC50 in assay [9] is more than 30 µM; in assay [3], more than 10 µM; at Adenosine receptor A2a, more than 10 µM; in [4], more than 10 µM; at Vasopressin V1a receptor, more than 10 µM; in assay [5] it was more than 10 µM. Besides, the AC50 in assay [6], in [7] and in assay [8] was more than 10 µM in each case.
On to `CC(C)(C)c1cc(C(C)(C)C)c(NC(=O)c2c[nH]c3ccccc3c2=O)cc1O` [IVACAFTOR], for which the AC50 is more than 30 µM on Adenosine receptor A1; more than 10 µM in assay [1]; more than 30 µM at B2 bradykinin receptor; 6.5 µM in assay [2]; more than 10 µM at Histamine H3 receptor; more than 30 µM at Vasopressin V2 receptor. Also, the AC50 at Histamine H1 receptor was more than 10 µM; in [9], more than 30 µM; in assay [3] it was more than 10 µM; on Adenosine receptor A2a, more than 30 µM; in [4], more than 10 µM; on Vasopressin V1a receptor it was more than 30 µM. Also, the AC50 was more than 30 µM in [5], more than 10 µM in assay [6], more than 10 µM in assay [7] and more than 10 µM in assay [8].
`O=C(O)[C@H](CC(=O)N1C[C@H]2CCCC[C@H]2C1)Cc1ccccc1` [MITIGLINIDE]: the AC50 (at Adenosine receptor A1; in [1]; on B2 bradykinin receptor; in [2]; on Vasopressin V2 receptor; at Histamine H1 receptor) was more than 10 µM throughout. The AC50 in assay [9] was more than 30 µM; in [3] it was more than 10 µM; on Adenosine receptor A2a, more than 10 µM; in assay [4], more than 10 µM; at Vasopressin V1a receptor it was more than 10 µM; in [5] it was more than 10 µM. For the same compound, the AC50 in assay [6], in assay [7] and in assay [8] was more than 10 µM throughout.
As for `N#Cc1ccc([C@H]2CCc3cncn32)c(F)c1` [OSILODROSTAT], the concentration at half-maximal activity (AC50) was more than 10 µM at Adenosine receptor A1; more than 10 µM in assay [1]; more than 10 µM in assay [2]; more than 10 µM on Histamine H3 receptor; 10 µM at Histamine H1 receptor; more than 10 µM in assay [9]. The AC50 (in assay [3]; at Adenosine receptor A2a; in assay [4]; at Vasopressin V1a receptor; in assay [5]) was more than 10 µM each time.
Regarding `CC[C@@H]1C(=O)OC[C@@H]1Cc1cncn1C` [PILOCARPINE], the AC50 at Adenosine receptor A1 is more than 30 µM; in [1], more than 10 µM; on B2 bradykinin receptor, more than 30 µM; in [2] it was more than 30 µM; at Histamine H3 receptor, more than 10 µM; at Vasopressin V2 receptor, more than 30 µM. The AC50 at Histamine H1 receptor is more than 10 µM; in assay [3], more than 10 µM; on Adenosine receptor A2a it was more than 30 µM; in [4], more than 10 µM; at Vasopressin V1a receptor, more than 30 µM; in assay [5] it was more than 30 µM. The half-maximal activity concentration (AC50) was more than 10 µM in assay [6], more than 10 µM in assay [7], more than 10 µM in assay [8] and more than 30 µM at Cannabinoid receptor 1.
`O=C(O)C[C@H](O)C[C@H](O)/C=C/c1c(C2CC2)nc2ccccc2c1-c1ccc(F)cc1` [PITAVASTATIN]: the AC50 at Adenosine receptor A1 is more than 10 µM; in assay [1], more than 10 µM; on B2 bradykinin receptor, more than 10 µM; in [2], more than 30 µM; at Vasopressin V2 receptor, more than 10 µM; on Histamine H1 receptor, more than 30 µM. Also, the AC50 is more than 30 µM in assay [9]; more than 10 µM in [3]; more than 30 µM at Adenosine receptor A2a; more than 30 µM in [4]; more than 10 µM at Vasopressin V1a receptor; more than 10 µM in assay [5]. Also, the AC50 in assay [6], in [7] and in assay [8] was more than 10 µM each time.
`C=CCC1(C(C)CC)C(=O)NC(=O)NC1=O` (stereo unspecified) [TALBUTAL]: the half-maximal activity concentration (AC50) (on Adenosine receptor A1; in assay [1]; at B2 bradykinin receptor; in assay [2]; at Histamine H3 receptor; at Vasopressin V2 receptor) was more than 10 µM throughout. The AC50 on Histamine H1 receptor was more than 10 µM; in [9], more than 30 µM; in [3], more than 10 µM; on Adenosine receptor A2a, more than 10 µM; in assay [4], more than 10 µM; on Vasopressin V1a receptor, more than 10 µM. The half-maximal activity concentration (AC50) in assay [5], in assay [6], in assay [7] and in [8] was more than 10 µM each time.
As to `CN1C(=O)OC(C)(C)C1=O` [TRIMETHADIONE], the AC50 (on Adenosine receptor A1; in assay [1]; on B2 bradykinin receptor; in [2]; at Histamine H3 receptor; on Vasopressin V2 receptor) was more than 10 µM in each case. The AC50 (in assay [3]; at Adenosine receptor A2a; in assay [4]; in [5]; in assay [6]; in assay [7]) was more than 10 µM each time. Moreover, the AC50 in [8] is more than 10 µM; on Cannabinoid receptor 1 it was more than 30 µM.

The record behind these values is ChEMBL document CHEMBL5291721, “A preclinical secondary pharmacology resource illuminates target-adverse drug reaction associations of marketed drugs” (Nat Commun, 2023).
